According to publication PMC6748986, “Potent modulation of the CepR quorum sensing receptor and virulence in a Burkholderia cepacia complex member using non-native lactone ligands” (Scientific Reports, 2019):
Like-named read-outs stand apart in the source and are kept apart here.

How the values were obtained:
CepR = biological target: T1, CepR (Burkholderia multivorans, UniProt Q93PF7); assay: CepR agonism in B. multivorans cepI::lacZ reporter (Bm-reporter); type: cell-based; conditions: for activation at 100 µM: read-out: Act%; for Emax: read-out: Maximal Activation (%)
T1 sequence (Q93PF7 1-239): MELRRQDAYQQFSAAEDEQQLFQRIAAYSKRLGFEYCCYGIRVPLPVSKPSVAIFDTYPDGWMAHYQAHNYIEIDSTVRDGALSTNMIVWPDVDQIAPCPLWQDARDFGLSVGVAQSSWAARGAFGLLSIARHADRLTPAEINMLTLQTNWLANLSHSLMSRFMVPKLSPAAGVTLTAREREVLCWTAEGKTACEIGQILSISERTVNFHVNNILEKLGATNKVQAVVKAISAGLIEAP
Text: We next sought to assess if the CepR modulators identified in the Ec-reporter maintained their activities in a member of the Bcc. For these studies, we generated a B. multivorans cepI::lacZ reporter organism (Bm-reporter) using standard allelic exchange methods (see Methods). Along with B. cenocepacia, B. multivorans is one of the most commonly isolated Bcc members[6],[44]. We note that small molecules must contend with a different cellular environment in the native organism relative to E. coli[48]; however, as both CepR and the cepI promoter are highly conserved among Bcc species (Fig. S3), we reasoned that the majority of compounds identified in the Ec-reporter (containing B. cenocepacia versions of the cepI promoter and the cepR gene) would maintain their relative activity profiles in CepR in B. multivorans. […] Similar to the Ec-reporter, CepR binding to the cepI promoter then induces β-galactosidase production, allowing for the quantitation of CepR activity. Using the Bm-reporter organism, we observed robust activity for CepR in response to C8-AHL (EC50 = 0.7 nM, Table 3).
The B. multivorans cepI::lacZ strain was used to obtain dose-response data for CepR in response to synthetic AHLs. Overnight cultures of B. multivorans cepI::lacZ were grown in LB medium at 37 °C with shaking (225 rpm). Aliquots (200 μL) of a 1:10 dilution of this overnight culture were plated into 96-well plates containing varying concentrations of compound, and then grown for 4 h at 37 °C with shaking (225 rpm). β-galactosidase production was measured as described above for E. coli, with the following changes: permeabilized cells were incubated at 25 °C with substrate CPRG for ~10 min until positive control wells developed a deep red color. For agonism assays, synthetic compound was screened alongside and compared to the native ligand, C8-AHL (100 μM). For antagonism assays, the concentration of native ligand utilized was 5 nM (approximately equal to twice its EC50 value).

B. multivorans ATCC17616 = assay: Swimming motility assay (0.3% agar); type: cell-based; conditions: 50 μM compound, 72 h, untreated = 100%
Protocol: We were interested to assess the effects of our lead CepR modulators on a phenotype under the control of QS in B. multivorans. However, very little work has been reported to directly link CepR activity in B. multivorans to any QS-controlled phenotype. […] Therefore, we chose to study the effects of compound treatment on both the swarming and swimming motility of B. multivorans (B. multivorans ATCC17616; see Methods).
Figure 3 B. multivorans motility assay data. Swimming motility was measured by spotting B. multivorans plus compound indicated in the center of M9 + 0.1% casamino acids + 0.3% agar in a 10 cm diameter petri dish. Area of the colony after 72 h incubation was calculated using ImageJ, normalized to the B. multivorans wild-type + vehicle (DMSO), and listed above each plate shown. TEXT PRINTED IN THE PICTURE: C8-AHL: 182% | E32: 195% | E35: 175% | E37: 173% | DMSO: 100% | A12: 55% | B12: 53% | E3: 58%
The motility assay was based on a previously reported procedure. B. multivorans was grown overnight with 50 μM compound at 37 °C and normalized to OD600 = 0.4, and then cells were washed with sterile water and resuspended with 50 μM fresh compound. Cells (5 μL) were spotted in the center of M9 + 0.1% Casamino Acids + 0.3% agar plates (100 mm diameter). Cells were grown for 72 h at 37 °C. Images were analyzed using ImageJ to calculate the area of the colony and normalized to the area of B. multivorans wild-type + vehicle (DMSO).

SMILES	EC50 (CepR)	activation at 100 µM (CepR)	Emax (CepR)	Swimming motility, area of the colony normalized to B. multivorans wild-type + vehicle (DMSO) (B. multivorans ATCC17616)	EC50 (CepR; Bm-reporter, agonism dose-response, read-out: EC50)	Maximal Activation (%) (CepR; Bm-reporter, activity for 100 μM C8-AHL set to 100%, error ±10%)	Act% (CepR; Table S4, Bm-reporter, screening conc. 100 μM)	EC50 fold lower than C8-AHL (CepR; Bm-reporter)
CCCCCCCC(=O)N[C@H]1CCOC1=O [Compound C8-AHL, N-octanoyl L-homoserine lactone, reference compound]	0.7 nM	100%	100%	182%				
O=C(CC1CCCC1)N[C@H]1CCOC1=O [Compound B12]				53%				
CCCCCC(O)CC(=O)N[C@H]1CCOC1=O (stereo partly drawn) [3’OH-C8-AHL, reference compound]					≥ 980 nM	78%	78%	
O=C(Cc1cccc(C(F)(F)F)c1)N[C@H]1CCOC1=O [Compound E3]		3.1%		58%				
O=C(CCc1ccc(I)cc1)N[C@H]1CCOC1=O [Compound E32]	0.08 nM	110%	110%	195%				
CCCCCCCS(=O)(=O)N[C@H]1CCOC1=O [Compound A12]				55%				
O=C(CCc1ccc(C(F)(F)F)cc1)N[C@H]1CCOC1=O [Compound E35]	0.022 nM	98%	98%	175%				
O=C(CCc1ccc([N+](=O)[O-])cc1)N[C@H]1CCOC1=O [Compound E37]	0.0025 nM	91%	91%	173%				~ 250 fold
